Laboratory results: paper PMC7948455, “Novel drug discovery platform for spinocerebellar ataxia, using fluorescence technology targeting β-III-spectrin” (The Journal of Biological Chemistry, 2020)

Experiments:
[1] = biological target: T1, ABD-L253P binding to actin (Homo sapiens, UniProt O15020, L253P); experiment: F-actin and ABD cosedimentation assay; details: for Effect on ABD-L253P to actin cosedimentation: 10 μM Hit compound
T1 construct: the β-III-spectrin (human) ABD residues 1 to 284; His-SUMO (cleaved yes); made in house; host or cells: E. coli BL21(DE3), vector pE-SUMOpro; actin from rabbit psoas muscle tissue
Description: (§1) Actin was purified from acetone powder derived from the psoas muscle of New Zealand white rabbit (Oryctolagus cuniculus) ([46]). Filamentous (F)-actin was stored for up to 3 days on ice before use in binding assays. Within an hour of the binding assay, the F-actin was clarified at 100,000g at 4 °C for 10 min prior to setting up binding assays. The L253P β-III-spectrin ABD was expressed in E. coli BL21(DE3) (Novagen). The ABD was purified and the His-SUMO tag proteolytically removed, as previously described ([14]), except size-exclusion chromatography was not performed due to the high purity of the ABD protein. Lifeact-mCherry protein was similarly prepared. A Bradford assay was performed to determine clarified F-actin and ABD protein concentrations.
(§2) F-actin and ABD binding assays were performed as previously described ([10]). In brief, binding assays used 1 μM ABD protein, 1 μM F-actin, and 1 to 50 μM compound (as indicated) or DMSO control for a total reaction volume of 60 μl in F-buffer containing 10 mM Tris, pH 7.5, 150 mM NaCl, 0.5 mM ATP, 2 mM MgCl2, and 1 mM DTT. Following 30 min incubation at room temperature (21 °C). F-actin was pelleted using centrifugation at 100,000g at 25 °C for 30 min. Unbound ABD in the supernatant was measured following SDS-PAGE and Coomassie blue staining in accord ([10]). In addition, control cosedimentations assays that lacked actin were performed to test if compounds cause ABD aggregation. F-actin and Lifeact-mCherry binding assays were undertaken with 2 μM Lifeact-mCherry, 30 μM F-actin, and 1 to 50 μM compound (as indicated) or DMSO control for a total reaction volume of 80 μl in F-buffer. For a no-actin binding control, an assay sample with no F-actin was also set up. Binding reactions were allowed to reach equilibrium at room temperature (21 °C) for 30 min, and then F-actin was pelleted by centrifugation at 100,000g at 25 °C for 30 min. The amount of unbound Lifeact-mCherry was sampled by loading 7 μl of spin supernatant on a low-volume black bottom 384-well plate (Greiner). Amount of mCherry was determined by acquiring fluorescence spectrum peak intensity at ∼600 nm using a spectral unmixing plate reader (Fluorescence Innovations, Inc) equipped with a 532 nm laser (Laserglow Technologies, Ontario, Canada) for excitation, 532 nm long-pass filter for emission, and PMT for emission detection. The fraction of Lifeact-mCherry bound to F-actin was determined by subtracting from one the fraction of supernatant fluorescence intensity relative to the no-actin control sample:(3) Lifeactboundfraction=1−Fcompound/DMSO/FNo−actin where Fcontrol/DMSO is the peak mCherry fluorescence of assay samples containing compound or DMSO control, and Fno-actin is the peak mCherry fluorescence of assay samples that contained no F-actin.

[2] = biological target: T2, Lifeact-mCherry binding to actin (Oryctolagus cuniculus, UniProt P68135); experiment: F-actin and Lifeact-mCherry cosedimentation assay
T2 construct: from tissue; host or cells: actin: rabbit psoas muscle; Lifeact-mCherry: made in house in E. coli (pE-SUMOpro)
Description: as §1, §2

[3] = test system: GFP-ABD-L253P to mCherry nonspecific FRET; experiment: Counter-screen FRET assay (GFP-ABD-L253P + mCherry, nonspecific FRET) in HEK293-6E cells; format: cell-based
Source text: With a constant amount of GFP-ABD-L253P expressed, increased Lifeact-mCherry expression increases FRET with an exponential plateau to 0.12 (Fig. 2A). To measure the nonspecific component of our FRET readout, we concurrently tested expression of mCherry in place of Lifeact-mCherry. For comparison, the Lifeact-mCherry and mCherry fluorescence intensity values (normalized to 1:1 GFP-ABD:Lifeact-mCherry sample) are plotted on the X-axis for samples transfected with different donor-to-acceptor DNA ratios. […] With the trade-off between high FRET and minimal nonspecific FRET, the donor:acceptor ratio 1:2 was chosen for the experiments that followed (Fig. 2A). […]
At 2 × 10^6 cells/ml, HEK293-6E cells were transfected with GFP-ABD-L253P or GFP-ABD-WT (2.4 μg), Lifeact-mCherry (2.4–16.8 μg), mCherry (1.2–16.8 μg), and/or pTT5 (0.8–17.6 μg), as indicated, using the 293fectin protocol (Thermo Fisher Scientific) with 20 μg total DNA. […] Cell viability and concentration were determined using trypan blue assay and a Countess cell counter (Invitrogen). […]
Time-resolved fluorescence waveforms for each well were fitted based on a one-exponential decay function using least-squares minimization global-analysis software, as detailed previously ([32]). […]

mammalian cells = details: 10 μM ref 36, 37, 38; cited from earlier work

T1 sequence (O15020 1-284 L253P): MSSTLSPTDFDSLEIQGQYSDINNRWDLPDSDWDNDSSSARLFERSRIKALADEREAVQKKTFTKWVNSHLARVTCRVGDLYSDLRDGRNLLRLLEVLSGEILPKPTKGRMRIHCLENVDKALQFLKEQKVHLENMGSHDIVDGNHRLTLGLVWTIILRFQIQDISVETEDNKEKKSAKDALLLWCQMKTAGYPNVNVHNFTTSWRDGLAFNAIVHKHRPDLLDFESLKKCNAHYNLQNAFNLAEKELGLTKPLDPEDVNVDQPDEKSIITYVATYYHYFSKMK

With `CC(C)(C)c1ccc(/C=C/C(=O)Nc2ccc3c(c2)OCCO3)cc1` [AMG 9810] the “Effect on ABD-L253P to actin cosedimentation” value [1] was “do not significantly alter”.

With `O=C(O)c1cc([N+](=O)[O-])ccc1NCCCc1ccccc1` [NPPB] the “Effect on actin-Lifeact cosedimentation” value ([2]; 10 μM Hit compound) was “decreased” and the “Effect on ABD-L253P to actin cosedimentation” value [1] was “do not significantly alter”.

With `CCOc1nc2cccc(C(=O)O)c2n1Cc1ccc(-c2ccccc2-c2nnn[nH]2)cc1` [candesartan] the “Effect on ABD-L253P to actin cosedimentation” value [1] was “do not significantly alter”.

In the case of `CCCCCCCC/C=C\CCCCCCCC(=O)NCc1ccc(O)c(OC)c1` [olvanil], the “Effect of Hit compound on counter-screen FRET” value ([3]; dose response, GFP-ABD-L253P:mCherry 1:2 and 1:4) is given as “no significant effect”, the “Effect on ABD-L253P to actin cosedimentation” value [1] is given as “do not significantly alter” and the “Reduction of cell viability” value (mammalian cells) is given as less than 10%.

For `CO[C@H]1C[C@H](CC[C@H](C)[C@H](O)[C@H](C)[C@H]2OC(=O)/C=C/C(C)=C/C[C@H](O)C[C@@H]3C=CC[C@@H](C[C@H](OC)[C@@H](C)[C@@H](O)C[C@@H](O)[C@H](C)[C@@H]([C@@H](C)[C@@H](O)[C@@H](C)CC[C@H]4C[C@H](OC)C[C@H](C)O4)OC(=O)/C=C/C(C)=C/C[C@H](O)C[C@@H]4C=CC[C@@H](C[C@H](OC)[C@@H](C)[C@@H](O)C[C@@H](O)[C@@H]2C)O4)O3)O[C@@H](C)C1` [swinholide A], the “Effect on counter-screen FRET readout” value ([3]; swinholide A 3 μM, tegaserod 50 μM, relative to DMSO) was “did not significantly alter”, the “Effect on Lifeact-mCherry cosedimentation with actin” value ([2]; 3 μM swinholide A, 50 μM tegaserod) was “reduces” and the “Effect on ABD-L253P cosedimentation with actin” value ([1]; 3 μM swinholide A, 50 μM tegaserod, n = 4) was “ablation”.
